This note sets out measurements from patent publication US20100093725A1, “SEMI-SOLID FORMULATIONS OF PHOSPHOLIPASE ENZYME INHIBITORS” (Wyeth, priority 2006, published 2010).

The nature of data set [1]: Solubility at room temperature in water, acid and basic conditions. The following applies: aqueous solution under acid conditions (free acid form), aqueous buffer, HPLC detection limit, read-out: intrinsic solubility of the free acid. Type of data set: physicochemical. As for the experimental part: The solubility of 4-(3-{5-chloro-1-(diphenylmethyl)-2-[2-({[2-(trifluoromethyl)benzyl]sulfonyl}amino)ethyl]-1H-indol-3-yl}propyl)benzoic acid was measured at room temperature in water, acid and basic conditions.

Data set [2] concerns carrageenan-induced paw edema. The experiment in a line: Rat carrageenan-induced paw edema (CPE) study. The format is in vivo. As for the experimental part:
Data from a rat carrageenan-induced paw edema (CPE) study indicated the minimum efficacious exposure of 4-(3-{5-chloro-1-(diphenylmethyl)-2-[2-({[2-(trifluoromethyl)benzyl]sulfonyl}amino) ethyl]-1H-indol-3-yl}propyl)benzoic acid was 1360 ng*hr/ml.
(In general: In the carrageenan paw model, swelling and tenderness develop within hours.)

As for `O=C(O)c1ccc(CCCc2c(CCNS(=O)(=O)Cc3ccccc3C(F)(F)F)n(C(c3ccccc3)c3ccccc3)c3ccc(Cl)cc23)cc1` [4-(3-{5-chloro-1-(diphenylmethyl)-2-[2-({[2-(trifluoromethyl)benzyl]sulfonyl}amino)ethyl]-1H-indol-3-yl}propyl)benzoic acid], the solubility (commonly the dissolved amount per volume that the medium holds) in data set [1] is less than 0.031 µg/mL. Further, the minimum efficacious exposure in data set [2] was found to be 1360 ng·h/mL.
